The source of these data is patent publication US12421243B2, “Pharmaceutically effective compounds inhibiting selectively the myosin 2 isoforms” (PRINTNET KERESKEDELMI ÉS SZOLGÁLTATÓ KFT., priority 2018, dated 2025).

For this assay, the system named is M. quadriceps femoris. The assay is described as follows: isometric force measurement of live, anesthetized rat M. quadriceps femoris due to electrical stimulation. Type of assay: in vivo. The protocol: The maximum isometric force induced by the stimulation was determined after intraperitoneal injection of some of the compounds of the invention. During the measurement, the following parameters of live anesthetized rats were continuously monitored: • a) heart rate • b) blood flow in the neck arteries • c) respiratory frequency • d) blood oxygen saturation ratio Results from live anesthetized rats are summarized in the table below.

SMILES strings stand for the structures.

With `O=C1c2ccsc2N=C2N(c3ccc(N4CCOCC4)cc3)CCC12O` (stereo not drawn) [Compound 188, 9-Hydroxy-12-[4-(morpholin-4-yl)phenyl]-4-thia-2,12-diazatricyclo[7.3.0.0^3,7]dodeca-1,3(7),5-trien-8-one], the “Maximum change in isometric force at rear leg (%)” value (shortened to “Maximum change … (%)”) (1 mg i.p.) was determined as 23%, the “Maximum change … (%)” value (3 mg i.p.) was found to be 26% and the “Maximum change … (%)” value (6 mg i.p.) amounted to 28%.
